Consider 13 compounds from patent publication US20150086504A1, “POLYMERIC MICROEMULSIONS” (Janssen Pharmaceutica NV, priority 2002, published 2015).

Converted amounts (≈) assume the structure as drawn. Like-named read-outs stand apart in the source and are kept apart here. Some results are limits rather than exact numbers.

Series [1] can be described thus: Solubility in water of model compounds (UV spectroscopy). Conditions: for solubility in water: mixed with water for 24 hours, UV spectroscopy, mean of triplicate; for solubility at 24 h: water, thermodynamic from solid.
Series [2] can be described thus: Solubility of model compounds in aqueous solutions of polymer D4.1 (mixed directly with polymeric solution; Table 4B). It is filed as physicochemical. Conditions: room temperature, duplicate; for solubility at 24 h: thermodynamic from solid. As to the method:
The solubility of the other model compounds in aqueous solutions of polymer D4.1 was determined by mixing the model compound directly with the polymeric solution for 24 hours at room temperature. Tested polymer concentrations were 1, 5, 10 and 20% (w/v). The obtained suspension was then filtered through a 0.45 μm PVDF membrane filter. The filtered solution was immediately diluted to allow determination of compound concentration by UV spectroscopy. (A polymer solution of the same concentration as the sample to be analysed was used as blank).

The next series can be described thus: physchem. Particulars: water, thermodynamic from solid.
For series [3] the following is noted: 24 h.
Series [4] is described as follows: Pharmacokinetic parameters in plasma (LCMS) after oral administration of risperidone solutions. It is filed as in vivo, Male Wistar rats. Conditions: rat plasma, active metabolite, micellar solution D4.3 10% (w/v) compared to reference solution. Here is the method:
Male Wistar rats (˜200 g) were treated by oral administration of vehicles of 2.5 mg/kg risperidone solubilized in three different vehicles (tartaric acid 0.625% v/v (as the reference), copolymer D4.3 1% (w/v) in water and D4.3 10% (w/v) in water). The animals were sacrificed by decapitation 2 hours after administration.
The above experiment was also performed in function of time for the reference solution and for the D4.3 10% (w/v) aqueous solution. Therefore, animals were sacrificed by decapitation at 10 minutes, 30 minutes, 1 hour, 2 hours, 4 hours, 8 hours, 16 hours and 24 hours after administration of the risperidone formulations. […] During this experiment, the usual pharmacokinetic parameters of the active metabolite following oral administration of the two risperidone solutions were determined by LCMS analysis of the plasma samples. […] This finding confirmed the results of an in vitro release study of risperidone from a micellar solution of the present invention. The in vitro release study was performed by dialysing a micellar solution of the invention containing C^14-radioactive risperidone against water and determining the radioactivity by liquid scintillation counting of samples taken from the water as a function of time.

Where [5] appears, read: D4.1 polymer concentration 1 w/v %.
[6] abbreviates: D4.1 polymer concentration 5 w/v %.
Setting [7] is: D4.1 polymer concentration 10 w/v %.
[8] abbreviates: D4.1 polymer concentration 20 w/v %.
Where [9] appears, read: 1% (w/v) aqueous solution of diblock copolymer D4.1, aqueous with cosolvent or surfactant or cyclodextrin, D4.1 polymer concentration 1 w/v %.
Where [10] appears, read: 5% (w/v) aqueous solution of diblock copolymer D4.1, aqueous with cosolvent or surfactant or cyclodextrin, D4.1 polymer concentration 5 w/v %.
[11] abbreviates: 10% (w/v) aqueous solution of diblock copolymer D4.1, aqueous with cosolvent or surfactant or cyclodextrin, D4.1 polymer concentration 10 w/v %.
Setting [12] is: 20% (w/v) aqueous solution of diblock copolymer D4.1, aqueous with cosolvent or surfactant or cyclodextrin, D4.1 polymer concentration 20 w/v %.

In series [1], `COc1cc2c(cc1OC)C1=NO[C@@H](CN3CCN(C/C(C)=C/c4ccc(F)cc4)CC3)[C@@H]1CO2` (relative stereo) [3-[[4-[(2E)-3-(4-fluorophenyl)-2-methyl-2-propenyl]-1-piperazinyl]methyl]-3a,4-dihydro-7,8-dimethoxy-3H-[1]benzopyrano[4,3-c]isoxazole [(3R,3aS)-rel-(+)]] had a solubility in water of 3 µg/mL (≈ 6.23 µM). Further, the “Solubility in aqueous solution of diblock copolymer D4.1” value worked out at 200 µg/mL in series [2] (setting [5]), 1010 µg/mL in series [2] (setting [6]), 1880 µg/mL in series [2] (setting [7]) and 3860 µg/mL in series [2] (setting [8]).
The corresponding values for `CS(=O)(=O)O.O=c1c2c([nH]c3ccccc13)[C@@H](c1ccc3c(c1)CCO3)N(c1ccccn1)C2` [3-(2,3-dihydro-5-benzofuranyl)-1,2,3,4-tetrahydro-2-(2-pyridinyl)-9H-pyrrolo[3,4-b]quinolin-9-one, (3R) mono methanesulfonate] are 190 µg/mL, 4370 µg/mL, 9830 µg/mL, 12380 µg/mL and 13950 µg/mL.
The corresponding values for `O=c1c2c([nH]c3ccccc13)[C@@H](c1ccc3c(c1)CCO3)N(c1ncc(-c3ccccn3)cn1)C2` [3-(2,3-dihydro-5-benzofuranyl)-1,2,3,4-tetrahydro-2-[5-(2-pyridinyl)-2-pyrimidinyl]-9H-pyrrolo[3,4-b]quinolin-9-one, (3R)] are below 1 µg/mL, 18 µg/mL, 81 µg/mL, 150 µg/mL and 280 µg/mL.
Usually solubility stands for the dissolved amount per volume that the medium holds. Read a high solubility as a readily soluble substance. On to `Cc1cc(C=CC#N)cc(C)c1Nc1ccnc(Nc2ccc(C#N)cc2)n1` [4-[[4-[[4-(2-cyanoethenyl)-2,6-dimethylphenyl]amino]-2-pyrimidinyl]amino]benzonitrile], for which the solubility at 24 h is 0.02 µg/mL (≈ 0.0546 µM) in series [1]; 50 µg/mL (≈ 136 µM) in series [2] (setting [9]); 120 µg/mL (≈ 327 µM) in series [2] (setting [10]); 230 µg/mL (≈ 628 µM) in series [2] (setting [11]); 440 µg/mL (≈ 1200 µM) in series [2] (setting [12]).
Turning to `Cc1cc2c(cc1-c1cc(/C=C3\SC(=O)NC3=O)ccc1OC(F)(F)F)C(C)(C)CCC2(C)C` [(Z) 5-[[3-(5,6,7,8-tetrahydro-3,5,5,8,8-pentamethyl-2-naphthalenyl)-4-(trifluoromethoxy)phenyl]methylene]-2,4-thiazolidinedione], the solubility at 24 h was below 0.5 µg/mL in the series “physchem”; 34 µg/mL (≈ 69.5 µM) in series [2] (setting [9]); 130 µg/mL (≈ 266 µM) in series [2] (setting [10]); 350 µg/mL (≈ 715 µM) in series [2] (setting [11]); 580 µg/mL (≈ 1180 µM) in series [2] (setting [12]).
The compound `C[C@@H]1[C@H](O)[C@@H](C)/C=C/C=C/C=C/C=C/C=C/C=C/C=C/[C@H](O[C@@H]2O[C@H](C)[C@@H](O)[C@H](N)[C@@H]2O)C[C@@H]2O[C@](O)(C[C@@H](O)C[C@@H](O)[C@H](O)CC[C@@H](O)C[C@@H](O)CC(=O)O[C@H]1C)C[C@H](O)[C@H]2C(=O)O` [Amphotericin B, amphotericin B] gave a solubility at 24 h in the series “physchem” of 0.1 µg/mL (≈ 0.108 µM).
Turning to `COc1ccc2c(c1)c(CC(=O)O)c(C)n2C(=O)c1ccc(Cl)cc1` [Indomethacin, indomethacin], in “physchem”, the solubility at 24 h worked out at 10 µg/mL (≈ 27.9 µM). Moreover, in series [3], the solubility in water was 10 µg/mL (≈ 27.9 µM).
In turn, `CC(=O)N1CCN(c2ccc(OCC3COC(Cn4ccnc4)(c4ccc(Cl)cc4Cl)O3)cc2)CC1` (stereo not shown) [Ketoconazole, ketoconazole] yielded a solubility at 24 h in series [1] of 10 µg/mL (≈ 18.8 µM).
Regarding `Nc1nc(Nc2ccc(S(N)(=O)=O)cc2)nn1C(=O)c1c(F)cccc1F` [N3-[4-(aminosulfonyl)phenyl]-1-(2,6-difluorobenzoyl)-1H-1,2,4-triazole-3,5-diamine], the solubility at 24 h in “physchem” is 15 µg/mL (≈ 38 µM); in series [2] (setting [9]), 530 µg/mL (≈ 1340 µM); in series [2] (setting [10]), 2710 µg/mL (≈ 6870 µM); in series [2] (setting [11]) it was 5760 µg/mL (≈ 14600 µM); in series [2] (setting [12]), 13900 µg/mL (≈ 35200 µM).
Consider `CC(=O)NC[C@H]1CN(c2ccc(N3Cc4cn(C)nc4C3)c(F)c2)C(=O)O1` [N-[[(5S)-3-[4-(2,6-dihydro-2-methylpyrrolo[3,4-c]pyrazol-5(4H)-yl)-3-fluorophenyl]-2-oxo-5-oxazolidinyl]methyl]-acetamide], for which the solubility at 24 h in series [1] amounted to 16 µg/mL (≈ 42.9 µM); in series [2] (setting [9]) it was 20 µg/mL (≈ 53.6 µM); in series [2] (setting [10]), 60 µg/mL (≈ 161 µM); in series [2] (setting [11]), 100 µg/mL (≈ 268 µM); in series [2] (setting [12]), 190 µg/mL (≈ 509 µM).
Consider `Cc1nc2n(c(=O)c1CCN1CCC(c3noc4cc(F)ccc34)CC1)CCCC2` [Risperidone, risperidone], for which, in series [4], the AUC entry is on record as “slightly higher”, the Cmax result is listed as “lower” and the half-life entry is reported as “longer”. Further, the concentration in solution in the series “physchem” (solubility at 24 h) was 60 µg/mL (≈ 146 µM).
The compound `Cc1cc(C)c(Nc2ccnc(Nc3ccc(C#N)cc3)n2)c(C)c1` [TMC 120, 4-[[4-[(2,4,6-trimethylphenyl)amino]-2-pyrimidinyl]amino]benzonitrile] gave a solubility at 24 h in series [1] below 1 µg/mL.
For the compound `Cc1cc(C#N)cc(C)c1Oc1nc(Nc2ccc(C#N)cc2)nc(N)c1Br` [TMC 125, 4-[[6-amino-5-bromo-2-[(4-cyanophenyl)amino]-4-pyrimidinyl]oxy]-3,5-dimethylbenzonitrile], the solubility at 24 h in series [1] is below 1 µg/mL; in series [2] (setting [9]), 60 µg/mL (≈ 138 µM); in series [2] (setting [11]), 520 µg/mL (≈ 1190 µM); in series [2] (setting [12]) it was 870 µg/mL (≈ 2000 µM). The “Solubility in aqueous solution of diblock copolymer D4.1” value in series [2] (setting [6]) stood at 300 µg/mL.
